Results taken from PMC8512560, “Design, Synthesis, and Antipoliferative Activities of Novel Substituted Imidazole-Thione Linked Benzotriazole Derivatives” (Molecules, 2021).
Where “and” joins values, the source holds several entries; their conditions need not be identical. Equal entries are not always repeated. Where two headings read alike, the source gives them in different places.

Tests used:
[1] = test system: MCF-7 human breast cancer cell line; experiment: MTT viability assay, MCF-7; assay type: cell-based; conditions: mean ± SD of three independent experiments, read-out: Antiproliferative Activities IC50, MCF-7
Experimental: (§1) All the human tumour cell lines MCF-7, HL-60, HCT-116, and HUVEC were cultured in Dulbecco’s Modified Eagle’s Medium (DMEM) with 10% fetal bovine serum, 2 mM L-glutamine and 100 µg/mL penicillin/streptomycin. Cells were maintained at 37 °C in 5% CO2 in a humidified incubator. All cells were sub-cultured three times/week by trypsinization using TrypLE Express (1X).
(§2) The Benzotriazole compounds were evaluated for antiproliferative effect using the MTT viability assay of various cancer cell lines (MCF-7, HCT-116 and HL-60) and the normal human umbilical vein endothelial cell line (HUVEC) to calculate the relative IC50 values for each compound. Cells were seeded in triplicate in 96-well plates at a density of 10 × 10^3 cells/mL in a total volume of 200 µL per well. 0.1% of DMSO was used as a vehicle control. After this time, they were treated with 2 µL test compound which had been pre-prepared as stock solutions in ethanol to furnish the concentration range of study, 10 nM to 100 µM, and re-incubated for a further 72 h. The culture medium was then removed, and the cells washed with 100 µL phosphate buffered saline (PBS) and 50 µL MTT added, to reach a final concentration of 1 mg/mL MTT added. Cells were incubated for 2 h in darkness at 37 °C. At this point solubilisation was begun through the addition of […] DMSO and the cells maintained at room temperature in darkness for 20 min to ensure thorough colour diffusion before reading the absorbance. Plates were incubated for 72 h at 37 °C + 5% CO2. The MTT (5 mg/mL in PBS) was added and incubated for another 4 h, and the optical density was detected with a microplate reader at 570 nm. Results were expressed as percentage viability relative to vehicle control (100%). Dose response curves were plotted and IC50 values (concentration of drug resulting in 50% reduction in cell survival) were obtained using the commercial software package Prism (GraphPad Software, Inc., La Jolla, CA, USA). All the experiments were repeated in at least three independent experiments.

[2] = test system: HCT-116 human colon cancer cell line; experiment: MTT viability assay, HCT-116; assay type: cell-based; conditions: mean ± SD of three independent experiments, read-out: Antiproliferative Activities IC50, HCT-116
Experimental: as §1, §2

[3] = test system: HUVEC human umbilical vein endothelial cell line; experiment: MTT viability assay, normal HUVEC cells; assay type: cell-based; conditions: 72 h, mean ± SD of three independent experiments
Experimental: as §1, §2

[4] = test system: MCF-7, HL-60 and HCT-116 cancer cell lines; experiment: MTT viability assay, values pooled over the cancer cell lines; assay type: cell-based, human; conditions: for IC50: Homo sapiens, MTT; for Fold more active than methyl-containing derivative BI2 (antiproliferative): relative to BI2, cell line not specified
Experimental: as §1, §2

[5] = test system: HL-60 human leukemia cancer cell line; experiment: MTT viability assay, HL-60; assay type: cell-based; conditions: mean ± SD of three independent experiments, read-out: Antiproliferative Activities IC50, HL-60
Experimental: as §1, §2

[6] = test system: colchicine binding site of tubulin; experiment: Colchicine site competitive binding assay ([3H]colchicine); conditions: tubulin and colchicine at 1 and 5 µM
Experimental: The affinity of Benzotriazole compounds to colchicine binding site was determined using a Colchicine Site Competitive Assay kit CytoDYNAMIX Screen15 (Cytoskeleton, Inc., Denver, CO, USA) using the standard protocol of the manufacturer to determine Ki values (μM). Biotin-labelled tubulin ([…]) and the test compounds (positive control colchicine, negative control vinblastine, G-1, fluorescent G-1, or 2-ME) in a 96-well plate (final volume: 100 μL). After incubating for 2 h at 37 °C with gentle shaking, streptavidin-labelled yttrium SPA beads (80 μg in 20 μL reaction buffer, PerkinElmer, Waltham, MA) were added to each well and incubated for 30 min at 4 °C. The plates were then read on a scintillation counter (Packard Instrument, Topcount Microplate Reader) and the percentage of inhibition was calculated.

bovine brain tubulin = experiment: Tubulin polymerization assay (turbidimetric, kit BK006); assay type: biochemical; conditions: read-out: Anti-Tubulin Activity IC50 ± SD (inhibition of tubulin polymerization)
Experimental: The assembly of purified bovine tubulin was monitored using a kit, BK006, purchased from Cytoskeleton Inc., (Denver, CO, USA). The assay was carried out in accordance with the manufacturer’s instructions using the standard assay conditions. Briefly, purified ([…]) in a buffer consisting of 80 mM PIPES (pH 6.9), 0.5 mM EGTA, 2 mM MgCl2, 1 mM GTP and 10% glycerol was incubated at 37 °C in the presence of either vehicle (2% (v/v) ddH2O), CA-4, benzotriazole compounds. Light was scattered proportionally to the concentration of polymerized microtubules in the assay. Therefore, the tubulin assembly was monitored turbidimetrically at 340 nm in a Spectramax 340 PC spectrophotometer (Molecular Devices, Sunnyvale, CA, USA). The concentration that inhibits tubulin polymerization by 50% (IC50) was determined using area under the curve (AUC). The AUC of the untreated controls were considered as 100% polymerization. The IC50 value for each compound was computed using GraphPad Prism Software.

[7] = MCF-7, HL-60 and HCT-116, read-out: IC50 values range over the three cancer cell lines
[8] = HL-60 and HCT-116 only, read-out: IC50 values range versus HL-60 and HCT-116 cells

Structure (SMILES)	melting point [°C]	IC50 ([1]; 72 h) [µM]	IC50 ([1]; Homo sapiens, MCF7, 72 h) [µM]	IC50 ([2]; 72 h) [µM]	IC50 ([2]; Homo sapiens, HCT-116, 72 h) [µM]	IC50 [3] [µM]	IC50 [4, 7] [µM]	IC50 ([5]; 72 h) [µM]	IC50 ([5]; Homo sapiens, HL-60, 72 h) [µM]	Colchicine Binding % ± SD (inhibition of [3H]colchicine binding), 1 µM Drug [6] [%]	Colchicine Binding % ± SD (inhibition of [3H]colchicine binding), 5 µM Drug [6] [%]	IC50 (bovine brain tubulin)	Fold more active than methyl-containing derivative BI2 (antiproliferative) [4] [fold]	IC50 [4, 8] [µM]
Oc1ccc(-n2cc(-n3nnc4ccccc43)[nH]c2=S)cc1 [BI5, 4-(1H-Benzo[d][1,2,3]Triazol-1-yl)-1-(4-Hydroxyphenyl)-1H-Imidazole-2(3H)-Thione]	267 to 269	4.45 ± 0.13	4.4	2.15 ± 0.14	2.1	4.74 ± 0.23	1.51 to 15.5	1.18 ± 0.08	1.1	61.78 ± 2	81.34 ± 2	0.49 µM and 0.497 µM		
S=c1[nH]c(-n2nnc3ccccc32)cn1-c1ccccc1 [BI1, 4-(1H-Benzo[d][1,2,3]Triazol-1-yl)-1-Phenyl-1H-Imidazole-2(3H)-Thione]	175 to 177		6.4 ± 0.18		17.5 ± 1.13	63 ± 3.02			5.23 ± 0.36					
NS(=O)(=O)c1ccc(-n2cc(-n3nnc4ccccc43)[nH]c2=S)cc1 [BI12, 4-(4-(1H-Benzo[d][1,2,3]Triazol-1-yl)-2-Thioxo-2,3-Dihydro-1H-Imidazol-1-yl)Benzenesulfonamide]	217 to 219		6.1 ± 0.75		7.83 ± 0.5	25.1 ± 1.2			0.9 ± 0.06	64.67 ± 2	80.26 ± 2	0.784 ± 0.02 µM		
CCc1ccc(-n2cc(-n3nnc4ccccc43)[nH]c2=S)cc1 [BI3, 4-(1H-Benzo[d][1,2,3]Triazol-1-yl)-1-(4-Ethylphenyl)-1H-Imidazole-2(3H)-Thione]	150 to 152		10.6 ± 0.31		2.75 ± 0.18	> 100			3.91 ± 0.27	65.38 ± 2	86.85 ± 2	0.928 ± 0.04 µM	3.8	
S=c1[nH]c(-n2nnc3ccccc32)cn1-c1ccccc1Cl [BI7, 4-(1H-Benzo[d][1,2,3]Triazol-1-yl)-1-(2-Chlorophenyl)-1H-Imidazole-2(3H)-Thione]	180 to 182		15.5 ± 0.44		7.38 ± 0.48	17.3 ± 0.35			3.42 ± 0.23	61.18 ± 2	79.95 ± 2	0.84 ± 0.02 µM		1.51 to 7.38
Fc1ccccc1N1CC(n2nnc3ccccc32)=NC1=S [BI10, 4-(1H-Benzo[d][1,2,3]Triazol-1-yl)-1-(2-Florophenyl)-1H-Imidazole-2(3H)-Thione]	196 to 198													
COc1ccc(-n2cc(-n3nnc4ccccc43)[nH]c2=S)cc1 [BI4, 4-(1H-Benzo[d][1,2,3]Triazol-1-yl)-1-(4-Methoxyphenyl)-1H-Imidazole-2(3H)-Thione]	175 to 177		2.29 ± 0.07			> 100			22.1 ± 1.52				2.5	
S=c1[nH]c(-n2nnc3ccccc32)cn1-c1ccc(Br)cc1 [BI11, 4-(1H-Benzo[d][1,2,3]Triazol-1-yl)-1-(4-Bromophenyl)-1H-Imidazole-2(3H)-Thione]	267 to 269		38.2 ± 1.09		17.4 ± 1.12	47.8 ± 2.29	11.5 to 38.2		11.5 ± 0.11					
Cc1ccc(-n2cc(-n3nnc4ccccc43)[nH]c2=S)cc1 [BI2, 4-(1H-Benzo[d][1,2,3]Triazol-1-yl)-1-(4-Methylphenyl)-1H-Imidazole-2(3H)-Thione]	178 to 180		12.5 ± 0.36		14.8 ± 0.95	12.2 ± 0.58	> 10		37.1 ± 2.54					
S=c1[nH]c(-n2nnc3ccccc32)cn1-c1cccc(Cl)c1 [BI8, 4-(1H-Benzo[d][1,2,3]Triazol-1-yl)-1-(3-Chlorophenyl)-1H-Imidazole-2(3H)-Thione]	120 to 122		2.66 ± 0.08		2.1 ± 0.14	39.8 ± 1.91	1.51 to 15.5		5.12 ± 0.35	59.74± 2	82.13 ± 2	3.05 µM		1.51 to 7.38
S=c1[nH]c(-n2nnc3ccccc32)cn1-c1ccc(Cl)cc1 [BI6, 4-(1H-Benzo[d][1,2,3]Triazol-1-yl)-1-(4-Chlorophenyl)-1H-Imidazole-2(3H)-Thione]	187 to 189		7.29 ± 0.21		1.51 ± 0.12	27.4 ± 1.31	1.51 to 7.29		3.28 ± 0.22	63.23 ± 2	77.63 ± 2	0.928 ± 0.03 µM		1.51 to 7.38
